According to article PMC3260207, “Site-Directed Mutations and the Polymorphic Variant Ala160Thr in the Human Thromboxane Receptor Uncover a Structural Role for Transmembrane Helix 4” (PLoS ONE, 2012):
Substitutions are numbered along the chain they refer to.

Experiments:
TP A160V mutant = target: T1, TP A160V mutant (Homo sapiens, UniProt P21731, A160V); assay: Heterologous competition binding, unlabeled U46619 against 4 nM [3H] SQ 29,548; details: read-out: Ki of agonist U46619, 4 nM [3H] SQ 29,548, 2 hr room temperature, Cheng-Prusoff from IC50
T1 construct: expressed in transfected cells; HEK293T (calcium assays)
T1 sequence (P21731 1-343 A160V): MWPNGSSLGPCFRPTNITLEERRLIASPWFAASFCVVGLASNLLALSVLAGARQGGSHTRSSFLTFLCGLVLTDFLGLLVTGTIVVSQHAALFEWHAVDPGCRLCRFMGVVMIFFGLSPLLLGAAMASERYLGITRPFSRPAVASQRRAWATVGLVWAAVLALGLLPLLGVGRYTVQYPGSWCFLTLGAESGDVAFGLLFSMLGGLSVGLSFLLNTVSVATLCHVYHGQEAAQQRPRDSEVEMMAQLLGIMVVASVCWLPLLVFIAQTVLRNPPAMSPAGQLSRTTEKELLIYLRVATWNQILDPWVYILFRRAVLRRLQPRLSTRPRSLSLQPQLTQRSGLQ
Procedure: (§1) Amino acid substitutions were introduced into the synthetic TPα gene carried by the expression vector pMT4 as described previously, [29]. DNA sequences of all the mutated genes were verified by automated DNA sequencing. To minimize variations in transfection efficiency, the total amount transfected DNA was kept constant in all cases at 1 µg of DNA per 7×10^5 cells. The wild type TP or mutant genes were expressed in COS-1 cells using a DEAE-dextran based transient transfection method, [29], and in HEK293T cells using lipofectamine 2000 (Invitrogen). Except unless specified, the membranes prepared from COS-1 cells were used for radioligand binding assays and immunoblots. For intracellular calcium determination assays and immunofluorescence imaging, HEK293T cells were used. For transient transfections of HEK293T cells using the plasmid pMT4, lipofectamine 2000 (Invitrogen) mediated transfection was used as described by the manufacturer. Membranes were prepared using Buffers A and B and as described previously, [29]. The protein concentration in the resuspended membrane pellet was determined using a modified DC protein assay kit from Bio-Rad Laboratories (Hercules, CA).
(§2) These were carried out in Buffer C for 60 min at room temperature, using 2 to 20 µg of membrane protein and different concentrations of [^3H] […] Binding of [^3H] […] Competition binding assays were performed using 4 nM [^3H] […] Binding was terminated by filtering under vacuum on GF/A filters (Millipore). Filter-bound radioactivity was measured using a liquid scintillation counter. Equilibrium dissociation constants (Kd) were determined from saturation isotherms using PRISM software version 5.0 (GraphPad Software Inc, San Diego, CA, USA). The Ki values were calculated from the IC50, using the equation of Cheng and Prusoff by PRISM software version 5.0. Where applicable, statistical significance of the data was evaluated using analysis of variance (ANOVA) and/or unpaired t test.

TP V110A mutant = target: T2, TP V110A mutant (Homo sapiens, UniProt P21731, V110A); assay: Saturation radioligand binding with [3H] SQ 29,548, membranes; details: picomoles of TP per milligram of total membrane protein, mean ± S.E
T2 construct: expressed in transfected cells; HEK293T (calcium assays)
T2 sequence (P21731 1-343 V110A): T1 sequence (P21731 1-343 A160V) with V110A, V160A
Procedure: as §1
as §2, with “5.0.” for “5.0. Where applicable, statistical significance of the data was evaluated using analysis of variance (ANOVA) and/or unpaired t test.”

TP F114A mutant = target: T3, TP F114A mutant (Homo sapiens, UniProt P21731, F114A); assay: as above; details: picomoles of TP per milligram of total membrane protein, mean ± S.E
T3 construct: expressed in transfected cells; HEK293T (calcium assays)
T3 sequence (P21731 1-343 F114A): T1 sequence (P21731 1-343 A160V) with F114A, V160A
Procedure: as §1
as §2, with “5.0.” for “5.0. Where applicable, statistical significance of the data was evaluated using analysis of variance (ANOVA) and/or unpaired t test.”

TP F107A mutant = target: T4, TP F107A mutant (Homo sapiens, UniProt P21731, F107A); assay: as above; details: picomoles of TP per milligram of total membrane protein, mean ± S.E
T4 construct: expressed in transfected cells; HEK293T (calcium assays)
T4 sequence (P21731 1-343 F107A): T1 sequence (P21731 1-343 A160V) with F107A, V160A
Procedure: as §1
as §2, with “5.0.” for “5.0. Where applicable, statistical significance of the data was evaluated using analysis of variance (ANOVA) and/or unpaired t test.”

[1] = target: T5, TP A160T mutant (nsSNP variant) (Homo sapiens, UniProt P21731, A160T); assay: as above; details: picomoles of TP per milligram of total membrane protein, mean ± S.E
T5 construct: expressed in transfected cells; HEK293T (calcium assays)
T5 sequence (P21731 1-343 A160T): T1 sequence (P21731 1-343 A160V) with V160T
Procedure: as §1
as §2, with “5.0.” for “5.0. Where applicable, statistical significance of the data was evaluated using analysis of variance (ANOVA) and/or unpaired t test.”

| Ki (TP A160V mutant) [µM] | Bmax, binding maximum of the ligand SQ 29,548 for the receptor (TP V110A mutant) [pmol/mg] | Bmax, binding maximum of the ligand SQ 29,548 for the receptor (TP F114A mutant) [pmol/mg] | Bmax, binding maximum of the ligand SQ 29,548 for the receptor (TP F107A mutant) [pmol/mg] | Bmax, binding maximum of the ligand SQ 29,548 for the receptor [1] [pmol/mg] | SMILES |
| --- | --- | --- | --- | --- | --- |
| 1.51 |  |  |  |  | CCCCC[C@H](O)/C=C/[C@@H]1[C@@H](C/C=C\CCCC(=O)O)[C@H]2CO[C@@H]1C2 [U46619] |
|  | 1.8 ± 0.3 | 1.6 ± 0.3 | 1.8 ± 0.2 | 1.8 ± 0.4 | O=C(O)CCC/C=C\C[C@@H]1[C@H](CNNC(=O)Nc2ccccc2)[C@H]2CC[C@@H]1O2 [SQ 29,548] |
